Patent publication US20230137491A1, “PEPTIDES AND USES THEREOF” (SINTICA BIOTECH SOCIETÀ A RESPONSABILITÀ LIMITATA …, priority 2020, published 2023)
Non-standard residues stand in square brackets, D forms with d. methoxy‑PEG 20 kDa = linear 20 kDa methoxy-PEG conjugated through D-Cys sulfur

Columns and labels:
[1] = system: primary and metastatic melanoma cell lines; experiment: Trypan blue viable cell counting in relation to CD271 levels by flow cytometry; format: cell-based, human; settings: five primary and metastatic melanoma cell lines
Method: FIG. 4. The peptide-induced cell death correlates with CD271 expression levels in melanoma cell lines. Five primary and metastatic melanoma cell lines were cultured and viability measured by Trypan blue staining solution. Flow cytometry was used to evaluate the expression level of CD271 receptor. Because CD271 mediates apoptosis in many cell systems, we analysed the effect of XYZ in melanoma cell lines in relation to the levels of the receptor. After treatment, melanoma cell lines were harvested and incubated with Trypan Blue staining solution or incubated with CD271 antibody for flow cytometer analysis.

[2] = system: SKMel28 melanoma cell lines overexpressing CD271; experiment: MTT assay in cells overexpressing CD271 (CD271 viral vector); format: cell-based, human; settings: SKMel28 with CD271 viral vector
Text: (§1) FIG. 6. The peptide reduces melanoma cell viability through CD271. WM115 melanoma cell line was transiently transfected with CD271 siRNA, as shwon by western blotting. MTT assay was used to measure cell viability after treatment with the peptide (XYZ) or the diluent in siRNA and scramble cells. SKme128 melanoma cell line was transiently transfected with CD271 mRNA, as shown by western blotting. MTT assay was used to measure cell viability after treatment with the peptide (XYZ) or the diluent in siRNA and scramble cells. Student's t-test was used for comparison of the means.
(§2) 5×10^3 cells/well were seeded in 96-well culture plates. At different time points, cells were incubated with 0.5% MTT (3-(4,5-dimethylthiazol-2-yl)-2,5-diphenyltetrazolium bromide) for 4 h at 37° C. and then dissolved with 100 μl Isopropanol with 0.04N HCl. The plate was read at 560 nm with a reference filter of 650 nm. Results are expressed as viability percentage, as compared to control.
Skme128 cell line was plated according to the liquid overlay method. After 24 h, cells were transduced by infection with viral supernatant generated by CD271-LNSN packaging cells or by LNSN packaging cells (kindly provided from F. Mavilio) in appropriate medium for melanoma, as described previously in the presence of polybrene (8 μg/ml). 48 h after infection cells were lysed for WB analysis or seeded for MTT assay.

CD1 mice = experiment: Acute toxicity testing (up and down procedure); format: in vivo; settings: six CD1 mice, intravenous, 17.5 mg/kg to 1750 mg/kg, up to six days
Method: FIG. 10. No toxic effects in 6 mice treated with XYZ. Acute toxicity testing was performed in CD1 mice with different doses of XYZ up to six days after treatment. After one day of fasting, six mice were injected intravenously (28 G needle) through the tail vein with a total dose of 17.5, 175, 550 or 1750 mg/kg/mouse of XYZ in a physiological solution. 50 gr of food were available two hours later. The health status (coat and appearance) of mice was observed from the first day after treatment. (a) Mice were weighed prior to XYZ injection and then every day until the sixth day. The amount of ingested food (b) and drinking water (c) were measured.
Intravenous injections were performed in six CD1 mice (Charles River, Calco (MI) Italy) tails for administration from 17.5 mg/kg to 1750 mg/kg XYZ (FIG. 10).

[3] = system: WM115 CD271 silenced (siRNA) melanoma cell line; experiment: MTT assay in CD271-silenced (siRNA) cells; format: cell-based, human; settings: WM115 transfected with CD271 siRNA
Text: as §1, §2
Melanoma cells were plated in 2D for 24 h in antibiotic free medium. WM115 cell line was then transfected with scrambled or CD271 siRNA (50 nM and 100 nM, respectively) (Dharmacon Inc, Lafayette, Colo., USA) in antibiotic/FBS free medium supplemented with 0.1% BSA and 48 h later cells were seeded for MTT assay or lysed for western blotting.

[4] = system: melanoma cell lines (WM115, WM266-4, SKmel28, WM793B, 1205Lu); experiment: MTT assay in melanoma cell lines; format: cell-based, human
Method: as §2
Five melanoma cell lines were used for testing the efficacy of XYZ or its non-PEGylated peptide component: WM115 and WM266-4, which are respectively the primary and metastatic melanoma derived from the same patient and expressing high levels of CD271, and SKme128, a metastatic melanoma cell line expressing low levels of CD271, WM793B, a primary melanoma, and 1205Lu derived from lung metastatic melanoma. The viability of the cell culture is assessed by MTT conversion. MTT solution is applied to the plates and placed into a cell culture incubator for 4 hours. The blue formazan metabolite produced by viable cells is then extracted into isopropanol and absorbance is measured at 570 nm using a spectrophotometer.

With “Ac-DMet-DLeu-Gly-DIle-DIle-DAla-Gly-DLys-DAsn-DSer-Gly-DCys-NH2 with a linear 20 kDa methoxy-PEG polymer conjugated to the D-Cys residue through the sulfur atom of the latter (Ac-[dM][dL]G[dI][dI][dA]G[dK][dN][dS]G[dC](methoxy‑PEG 20 kDa)-NH2) [XYZ]” the “cell death versus CD271 expression level (Trypan blue viable cell counting, flow cytometry)” value [1] was “more efficacious in cell lines expressing higher levels of CD271”, the “cell death (MTT assay) in CD271-overexpressing cells” value [2] was “induces cell death to a greater extent” and the “acute toxic effect (appearance, weight, water and food intake)” value (CD1 mice) was “did not show any acute toxic effect”. For the same substance, the “cell viability (MTT assay) in CD271-silenced cells” value [3] was “fails to reduce cell viability”, the “cell proliferation (MTT assay), dose dependence” value ([4]; WM115, WM266-4 and SKmel28, different doses and time points) was “diminishes cell proliferation, as shown by MTT assay, in a dose-dependent manner” and the “cell proliferation (MTT assay)” value ([4]; five melanoma cell lines, 48 h and 96 h after treatment, no significant difference between PEGylated and non-PEGylated form) was “reduce cell proliferation”.
